Consider 4 compounds from patent US11903959B2 (EMORY UNIVERSITY, priority 2017, dated 2024).

Like-named read-outs stand apart in the source and are kept apart here.

For data set [1] the following is noted: cynomolgus monkey, in vivo, po; for AUC0->24 h / CL / t1/2 / tmax / Cmax: 0.4 mmol/kg.
A short description of data set [2]: Plasma stability, mouse.
Data set [3] can be described thus: Plasma stability, human.
Data set [4] in a line: Plasma stability, monkey.
Data set [5] can be described thus: in vitro. To be noted: monkey, microsomes.
A short description of data set [6]: in vitro. To be noted: human, microsomes.
In data set [7] the test system is Influenza A/California/07/2009 (H1N1). The arrangement: species or system ferrets. To be noted: in vivo, po.
In data set [8] the test system is Influenza A/Wisconsin/67/2005 (H3N2). The arrangement: species or system ferrets. To be noted: in vivo.
Data set [9] in a line: in vitro. To be noted: mouse, microsomes.
Data set [10] is described as follows: in vitro. The note with it: rat, microsomes.
Data set [11] is described as follows: in vitro. The note with it: dog, microsomes.
For data set [12] the following is noted: mouse, in vivo.
The subject of data set [13] is Vero cells.
For data set [14], the system named is Huh-7 cells.
In data set [15] the test system is HepG2 cells.
The test system of data set [16] is CEM cells.

In data set [1], `CC(C)[C@H](N)C(=O)OC[C@H]1O[C@@H](n2ccc(NO)nc2=O)[C@H](O)[C@@H]1O` [EIDD-2898] displayed an F of around 15%. Besides, the “F*” value in data set [1] is on record as around 18%. Moreover, the “Plasma t1/2” value in [2] stood at 144 min; in [3] it was 198 min; in data set [4], 138 min.
By half-life is commonly meant the time in which the quantity being followed falls by half. Turning to `CC(C)C(=O)OC[C@H]1O[C@@H](n2ccc(NO)nc2=O)[C@H](OC(=O)C(C)C)[C@@H]1OC(=O)C(C)C` [EIDD-2800], in data set [1] (female), the F was around 16%, the “AUC0->24 h” value was determined as 27.4 ± 11.5 µM·h, the CL was determined as 265 ± 128 mL/min/kg and the t1/2 amounted to 264 ± 72 min. The compound also yielded a tmax in data set [1] (female) of 18.6 ± 7.2 min. In addition, in data set [1] (male), the “AUC0->24 h” value stood at 38.9 ± 7.58 µM·h, the CL amounted to 152 ± 21.7 mL/min/kg, the t1/2 came to 330 ± 252 min and the tmax stood at 22.2 ± 8.4 min. This compound had a half-life in [5] of 2 min. For the same compound, in data set [6], the half-life came out at 1 min. Besides, the “Plasma t1/2” value in data set [2] came to 1 min. Moreover, the “Plasma t1/2” value in data set [3] was determined as 1 min. The “Plasma t1/2” value in data set [4] came to 2 min.
As for `CC(C)C(=O)OC[C@H]1O[C@@H](n2ccc(NO)nc2=O)[C@H](O)[C@@H]1O` [EIDD-2801], in [7], the Fever entry is “completely avoided”; the “Viral titers in nasal lavage samples” value is “greatly reduced”; the “viral titers in nasal lavage samples and fever” value was “rapidly reduce viral titers in nasal lavage samples as well as fever”. For the same compound, the “viral titers in nasal lavage and turbinates” value in [8] (20 mg/kg) is listed as “greatly reduced”. For the same compound, in data set [8] (100 mg/kg), the “Viral titers in nasal lavage, fever, and viral titers in turbinates” value is “greatly reduced”. Besides, in [1] (female), the F is listed as around 26%, the “AUC0->24 h” value stood at 43.8 ± 17.0 µM·h, the CL turned out to be 172 ± 93.3 mL/min/kg and the Cmax came to 12.3 ± 2.33 µM. Further, in data set [1] (female), the t1/2 was 114 ± 78 min and the tmax came to 75 ± 30 min. In data set [1] (male), the “AUC0->24 h” value worked out at 31.7 ± 7.82 µM·h, the CL was 217 ± 61.7 mL/min/kg, the Cmax came to 8.08 ± 1.32 µM and the t1/2 amounted to 108 ± 54.6 min. The compound further came in with a tmax in data set [1] (male) of 120 ± 48.6 min. Further, in data set [9], the half-life was determined as 2 min. This compound displayed a half-life in data set [10] of 5 min. In [11], this compound gave a half-life of 1 min. Moreover, the half-life in [5] stood at 1 min. In data set [6], this compound displayed a half-life of 73 min.
As to `O=c1nc(NO)ccn1[C@@H]1O[C@H](COP(=O)(O)OP(=O)(O)OP(=O)(O)O)[C@@H](O)[C@H]1O` [EIDD-2061], the “Brain Cmax” value in [12] (225 mg/kg) is reported as 3.5 nmol/g; in data set [12] (750 mg/kg), 5.5 nmol/g. Further, the “AUC0->t” value in data set [13] was determined as 13850 pmol · h/M cells; in data set [14] it was 14640 pmol · h/M cells; in [15], 299.8 pmol · h/M cells; in [16] it was 2355 pmol · h/M cells. The Cmax in [13] worked out at 872.0 pmol/M Cells; in data set [14], 1113.3 pmol/M Cells; in data set [15] it was 470.3 pmol/M Cells; in data set [16], 171.3 pmol/M Cells. In addition, the tmax in [13] turned out to be 960 min; in data set [14] it was 1440 min; in data set [15], 960 min; in data set [16], 1440 min.
